Literature values in US20100022590A1, “Novel compounds” (BIOVITRUM AB (publ.), priority 2008, published 2010).

Columns and labels:
[1] = tested on: intraocular pressure (IOP); conditions: oral administration, healthy volunteers
[2] = tested on: intraocular pressure (IOP); conditions: orally administered, patients with ocular hypertension

Question: For `CC1(C)[C@@H](OC(=O)CCC(=O)O)CC[C@]2(C)[C@H]3C(=O)C=C4[C@@H]5C[C@@](C)(C(=O)O)CC[C@]5(C)CC[C@@]4(C)[C@]3(C)CC[C@@H]12` [carbenoxolone], which “reduction of intraocular pressure (IOP)” value [1] is on record?
Answer: 20%

Question: What about the IOP reduction [2] of the same compound?
Answer: 10%
